Reference: the supplement of paper PMC10307832

How the values were obtained:
Assay in all cases: relative viability (nuclei count vs DMSO), 5 days (fraction); higher = more cells survive
[1] = compound: C1CC(C1)(C(=O)O)C(=O)O.[NH2-].[NH2-].[Pt+2] [Carboplatin] + CC(=O)c1c(C)c2cnc(Nc3ccc(N4CCNCC4)cn3)nc2n(C2CCCC2)c1=O [Palbociclib] (partner 0.5 µM)
Summary of the method: (§1)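 Values are medians from duplicate plates. Each reflects relative viability, defined as the nuclei count of treated wells over that of vehicle wells. Lung cancer cell lines in 1536-well plates were pin-tool dosed one day after seeding with one drug alone or with a fixed anchor-drug dose plus five library-drug doses (not always all listed) in √10 steps, then fixed, stained and imaged at 4× after 5 days.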

[2] = compound: C1CC(C1)(C(=O)O)C(=O)O.[NH2-].[NH2-].[Pt+2] [Carboplatin] + Cc1nc(Nc2ncc(C(=O)Nc3c(C)cccc3Cl)s2)cc(N2CCN(CCO)CC2)n1 [Dasatinib] (partner 0.075 µM)
Summary of the method: as §1

[3] = compound: CC[C@H](C)N1C=C(C2=C(C=C(C=C21)C3=CN=C(C=C3)N4CCNCC4)C(=O)NCC5=C(C=C(NC5=O)C)C)C [GSK126] + COc1cccc2cc(-c3nc([C@H]4CC[C@H](C(=O)O)CC4)n4ncnc(N)c34)[nH]c12 [OSI-027] (partner 0.5 µM)
Summary of the method: as §1

[4] = compound: CC[C@H](C)N1C=C(C2=C(C=C(C=C21)C3=CN=C(C=C3)N4CCNCC4)C(=O)NCC5=C(C=C(NC5=O)C)C)C [GSK126] + NC(=O)Nc1cc(-c2cccc(F)c2)sc1C(=O)N[C@H]1CCCNC1 [AZD7762] (partner 0.2 µM)
Summary of the method: as §1

Row | Cell Line | relative viability ([1]; first compound 0.08 µM) | relative viability ([1]; first compound 0.253 µM) | relative viability ([1]; first compound 0.8 µM) | relative viability ([1]; first compound 2.53 µM) | relative viability ([1]; first compound 8 µM) | relative viability ([2]; first compound 0.08 µM) | relative viability ([2]; first compound 0.253 µM) | relative viability ([2]; first compound 0.8 µM) | relative viability ([2]; first compound 2.53 µM) | relative viability ([2]; first compound 8 µM) | relative viability ([3]; first compound 0.08 µM) | relative viability ([3]; first compound 0.253 µM) | relative viability ([3]; first compound 0.8 µM) | relative viability ([3]; first compound 2.53 µM) | relative viability ([3]; first compound 8 µM) | relative viability ([4]; first compound 0.08 µM) | relative viability ([4]; first compound 0.253 µM) | relative viability ([4]; first compound 0.8 µM) | relative viability ([4]; first compound 2.53 µM) | relative viability ([4]; first compound 8 µM)
1 | NCI-H522 | 0.897 | 1.35 | 1 | 0.965 | 0.825 | 0.751 | 0.88 | 0.859 | 0.911 | 0.886 | 0.651 | 0.731 | 0.779 | 0.638 | 0.686 | 0.849 | 0.888 | 0.904 | 0.93 | 0.964
2 | NCI-H647 | 0.433 | 0.542 | 0.388 | 0.229 | 0.37 | 0.196 | 0.18 | 0.216 | 0.164 | 0.161 | 0.69 | 0.528 | 0.63 | 0.649 | 0.692 | 0.465 | 0.495 | 0.497 | 0.507 | 0.371
3 | NCI-H650 | 0.318 | 0.337 | 0.332 | 0.276 | 0.232 | 0.472 | 0.47 | 0.399 | 0.423 | 0.371 | 0.49 | 0.529 | 0.489 | 0.497 | 0.583 | 0.946 | 1.11 | 0.964 | 1.01 | 1.16
4 | NCI-H727 | 0.732 | 0.668 | 0.726 | 0.573 | 0.591 | 0.472 | 0.356 | 0.374 | 0.364 | 0.376 | 0.653 | 0.686 | 0.599 | 0.603 | 0.627 | 0.683 | 0.619 | 0.539 | 0.64 | 0.458
5 | NCI-H838 | 0.213 | 0.238 | 0.212 | 0.224 | 0.261 | 0.306 | 0.3 | 0.331 | 0.319 | 0.275 | 0.43 | 0.403 | 0.309 | 0.424 | 0.379 | 1.1 | 0.932 | 0.873 | 0.916 | 0.857
6 | NCI-H1355 | 0.442 | 0.446 | 0.415 | 0.402 | 0.395 | 0.729 | 0.759 | 0.776 | 0.667 | 0.656 | 0.412 | 0.362 | 0.418 | 0.453 | 0.44 | 0.814 | 0.658 | 0.688 | 0.746 | 0.479
7 | NCI-H1395 | 0.703 | 0.679 | 0.547 | 0.487 | 0.535 | 0.423 | 0.367 | 0.392 | 0.42 | 0.516 | 0.679 | 0.561 | 0.648 | 0.704 | 0.649 | 0.392 | 0.381 | 0.399 | 0.399 | 0.342
8 | NCI-H1437 | 0.302 | 0.316 | 0.273 | 0.272 | 0.31 | 0.619 | 0.411 | 0.428 | 0.411 | 0.325 | 0.913 | 0.854 | 0.77 | 0.844 | 0.828 | 1.19 | 1.06 | 1.05 | 1.1 | 0.966
